Consider 24 compounds from ChEMBL document CHEMBL3228009, “Hypobetalipoproteinemic agents. 2. Compounds related to 4-(1-adamantyloxy)aniline” (J Med Chem, 1979).

Data set [1] concerns Rattus norvegicus. As to the kind of experiment: Toxicity in diet-induced hypercholesteremic rat model assessed as increase in body weight at 50 mg/kg, po relative to control. The format is organism-based. Details: dose 50 mg/kg, route oral. Conditions: in vivo.
Data set [2] has as its system Rattus norvegicus. As to the kind of experiment: Hypobetalipoproteinemic activity in diet-induced hypercholesteremic rat model assessed as decrease in total serum cholesterol at 50 mg/kg, po relative to control. The format is functional.
Data set [3] concerns Rattus norvegicus. The data set can be described thus: Hypobetalipoproteinemic activity in diet-induced hypercholesteremic rat model assessed as decrease in heparin precipitating lipoproteins at 50 mg/kg, po relative to control. The format is functional.
Data set [4] deals with Rattus norvegicus. As to the kind of experiment: Toxicity in diet-induced hypercholesteremic rat model assessed as increase in food intake at 50 mg/kg, po relative to control. Type of data set: organism-based. Details: dose 50 mg/kg, route oral. Particulars: in vivo.
For data set [5], the species on record is Rattus norvegicus. As to the kind of experiment: Selectivity ratio of T/C for heparin precipitating lipoproteins to T/C for total serum cholesterol in diet-induced hypercholesteremic rat model. Type of data set: functional.

As for `Nc1ccc(S(=O)(=O)C23CC4CC(CC(C4)C2)C3)cc1`, the Activity with Rattus norvegicus [1] is on record as above 63%; with Rattus norvegicus [4] it was above 73%. Moreover, the T/C in the data set on Rattus norvegicus [2] is reported as 1.12; in the data set with Rattus norvegicus [3], 1.07. In addition, the Selectivity ratio in the data set listed under Rattus norvegicus [5] is 0.95.
Take `Nc1ccc(SC23CC4CC(CC(C4)C2)C3)cc1`: the Activity in the data set on Rattus norvegicus [1] is reported as above 63%; in the data set on Rattus norvegicus [4], above 73%. Also, the T/C in the data set on Rattus norvegicus [2] stood at 0.51; in the data set with Rattus norvegicus [3], 0.45. Also, the Selectivity ratio in the data set filed under Rattus norvegicus [5] is given as 0.87.
With `OC12CC3CC(CC(C3)C1)C2`, the Activity was above 63% with Rattus norvegicus [1] and above 73% in the data set on Rattus norvegicus [4]. Besides, the results for the T/C with Rattus norvegicus [2] and in the data set with Rattus norvegicus [3] were 0.94 and 0.98, respectively. For the same compound, in the data set listed under Rattus norvegicus [5], the Selectivity ratio came out at 1.04.
In the same order, the values of `CSCc1cc(OC23CC4CC(CC(C4)C2)C3)cc(C)c1N` are above 63%, above 73%, 0.88, 0.85 and 0.96.
The matching figures for `Cc1cc(OC23CC4CC(CC(C4)C2)C3)cc(C)c1N`: above 63%, above 73%, 0.77, 0.72 and 0.93.
In the same order, the values of `Cc1cc(OC23CC4CC(CC(C4)C2)C3)cc(C)c1N1CCCC1` are above 63%, above 73%, 1.18, 1.28 and 1.08.
With `Cl.Nc1ccc(C23CC4CC(CC(C4)C2)C3)cc1`, the Activity is above 63% with Rattus norvegicus [1] and above 73% in the data set on Rattus norvegicus [4]. For the same compound, the values for the T/C in the data set with Rattus norvegicus [2] and in the data set with Rattus norvegicus [3] were 1.41 and 1.4, respectively. Besides, the Selectivity ratio in the data set listed under Rattus norvegicus [5] is recorded as 0.99.
The matching figures for `c1cc(C23CC4CC(CC(C4)C2)C3)ccc1N1CCCC1`: above 63%, above 73%, 1.17, 0.9 and 0.77.
For the compound `Cl.Nc1ccc(CC23CC4CC(CC(C4)C2)C3)cc1`, the Activity is recorded as above 63% in the data set with Rattus norvegicus [1] and above 73% with Rattus norvegicus [4]. Further, the T/C is 0.45 with Rattus norvegicus [2] and 0.23 in the data set on Rattus norvegicus [3]. Besides, the Selectivity ratio in the data set filed under Rattus norvegicus [5] is on record as 0.5.
In the case of `CNc1ccc(CC23CC4CC(CC(C4)C2)C3)cc1.Cl`, the results for the Activity in the data set with Rattus norvegicus [1] and with Rattus norvegicus [4] were above 63% and above 73%, respectively. The T/C is recorded as 0.55 with Rattus norvegicus [2] and 0.45 in the data set on Rattus norvegicus [3]. In the data set listed under Rattus norvegicus [5], the Selectivity ratio is given as 0.82.
In the same order, the values of `c1cc(N2CCCC2)ccc1CC12CC3CC(CC(C3)C1)C2` are above 63%, above 73%, 0.82, 0.87 and 1.06.
For the compound `Cl.Nc1ccccc1CC12CC3CC(CC(C3)C1)C2`, the values for the Activity with Rattus norvegicus [1] and in the data set on Rattus norvegicus [4] were above 63% and above 73%, respectively. In addition, the T/C in the data set with Rattus norvegicus [2] was found to be 0.86; in the data set with Rattus norvegicus [3], 0.89. Moreover, the Selectivity ratio in the data set filed under Rattus norvegicus [5] was 1.03.
The matching figures for `c1ccc(N2CCCC2)c(CC23CC4CC(CC(C4)C2)C3)c1`: above 63%, above 73%, 1.39, 1.4 and 1.01.
Take `CN(c1ccc(N)cc1)C12CC3CC(CC(C3)C1)C2.Cl`: the values for the Activity in the data set on Rattus norvegicus [1] and with Rattus norvegicus [4] were below 63% and below 73%, respectively. The values for the T/C in the data set on Rattus norvegicus [2] and with Rattus norvegicus [3] were 0.84 and 0.82, respectively. In addition, the Selectivity ratio in the data set listed under Rattus norvegicus [5] is recorded as 0.98.
The matching figures for `CN(c1ccc(N2CCCC2)cc1)C12CC3CC(CC(C3)C1)C2`: below 63%, above 73%, 0.93, 1.02 and 1.1.
The matching figures for `Nc1ccc(NC23CC4CC(CC(C4)C2)C3)cc1`: below 63%, above 73%, 0.94, 0.85 and 0.9.
In the case of `CC(=O)Nc1ccc(N(C(C)=O)C23CC4CC(CC(C4)C2)C3)cc1`, the Activity is listed as above 63% in the data set with Rattus norvegicus [1] and above 73% in the data set on Rattus norvegicus [4]. Also, the T/C in the data set with Rattus norvegicus [2] is recorded as 1; with Rattus norvegicus [3], 0.98. In addition, in the data set listed under Rattus norvegicus [5], the Selectivity ratio is 0.98.
Regarding `c1cc(N2CCCC2)ccc1SC12CC3CC(CC(C3)C1)C2`, the Activity with Rattus norvegicus [1] is recorded as above 63%; with Rattus norvegicus [4], above 73%. Further, the results for the T/C with Rattus norvegicus [2] and in the data set on Rattus norvegicus [3] were 0.83 and 0.95, respectively. In the data set filed under Rattus norvegicus [5], the Selectivity ratio came out at 1.14.
For `Nc1ccc(OC2C3CC4CC(C3)CC2C4)cc1` (stereo not given), the Activity with Rattus norvegicus [1] is reported as above 63%; in the data set with Rattus norvegicus [4] it was above 73%. Besides, the T/C is on record as 0.82 in the data set with Rattus norvegicus [2] and 0.67 in the data set with Rattus norvegicus [3]. The Selectivity ratio in the data set listed under Rattus norvegicus [5] is reported as 0.82.
Consider `CC1(Oc2ccc(N)cc2)C2CC3CC(C2)CC1C3` (stereo not given), for which the results for the Activity in the data set on Rattus norvegicus [1] and in the data set with Rattus norvegicus [4] were below 63% and above 73%, respectively. Also, the results for the T/C in the data set with Rattus norvegicus [2] and in the data set with Rattus norvegicus [3] were 0.58 and 0.45, respectively. In the data set listed under Rattus norvegicus [5], the Selectivity ratio was determined as 0.77.
In the case of `c1cc(N2CCCC2)ccc1OC1C2CC3CC(C2)CC1C3` (stereo not given), the Activity in the data set on Rattus norvegicus [1] is above 63%; with Rattus norvegicus [4], above 73%. Moreover, the T/C with Rattus norvegicus [2] and in the data set on Rattus norvegicus [3] was 1.07 in each case. In addition, the Selectivity ratio in the data set listed under Rattus norvegicus [5] is given as 1.01.
With `CC1(Oc2ccc(N3CCCC3)cc2)C2CC3CC(C2)CC1C3` (stereo not given), the Activity is reported as above 63% with Rattus norvegicus [1] and above 73% in the data set on Rattus norvegicus [4]. Further, the T/C in the data set with Rattus norvegicus [2] came to 1.04; in the data set on Rattus norvegicus [3] it was 1.03. Moreover, in the data set listed under Rattus norvegicus [5], the Selectivity ratio is given as 0.99.
The matching figures for `CNc1ccc(OC2C3CC4CC(C3)CC2C4)cc1.Cl` (stereo not given): above 63%, above 73%, 0.83, 0.87 and 1.04.
The matching figures for `Nc1ccc(O)cc1` [4-AMINOPHENOL]: above 63%, above 73%, 0.94, 0.98 and 1.04.
